In patent US8952024B2, “Herbicidal pyrimidone derivatives” (E I du Pont de Nemours and Company, priority 2009, dated 2015):

What was measured:
Assay type in all cases: in vivo
[1] = tested on: pigweed (Amaranthus retroflexus); assay: Test A pre-/postemergence plant response
In short: (§1)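 Formulated test chemicals (non-phytotoxic solvent, surfactant) were sprayed onto soil right after planting and simultaneously onto young plants at one to two leaves, 2 to 10 cm tall. Plants stayed in the greenhouse about ten days; injury was then visually scored against untreated controls, from 0 (no effect) to 100 (complete control).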

[2] = tested on: wheat (Triticum aestivum); assay: Test A pre-/postemergence plant response
In short: as §1

[3] = tested on: morningglory (Ipomoea spp.); assay: Test A pre-/postemergence plant response
In short: as §1

corn (Zea mays) = assay: Test A pre-/postemergence plant response
In short: as §1

[4] = tested on: large crabgrass (Digitaria sanguinalis); assay: Test A pre-/postemergence plant response
In short: as §1

[5] = tested on: giant foxtail (Setaria faberii); assay: Test A pre-/postemergence plant response
In short: as §1

[6] = tested on: velvetleaf (Abutilon theophrasti); assay: Test A pre-/postemergence plant response
In short: as §1

[7] = tested on: barnyardgrass (Echinochloa crus-galli); assay: Test A pre-/postemergence plant response
In short: as §1

[8] = tested on: ducksalad (Heteranthera limosa); assay: Test B flooded paddy test; details: for Plant response rating, Flood, Ducksalad: 250 g ai/ha, flooded paddy test, visual rating on 0 to 100 scale (0 no effect, 100 complete control) after 13 to 15 days; for Plant response rating, Ducksalad: Flood (flooded paddy test), 13 to 15 days; for Ducksalad plant response rating: Flood, 31 g ai/ha, scale 0 to 100 (0 no effect, 100 complete control)
In short: (§2)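 2-leaf seedlings; pots flooded 3 cm over soil at treatment; cpd dosed into floodwater, depth kept constant. Greenhouse 13–15 d. Visual rating vs untreated controls, 0 = no effect, 100 = complete control.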

[9] = tested on: umbrella sedge (Cyperus difformis); assay: Test B flooded paddy test; details: for Plant response rating, Flood, Sedge, Umbrella: 250 g ai/ha, flooded paddy test, visual rating on 0 to 100 scale (0 no effect, 100 complete control) after 13 to 15 days; for Plant response rating, Sedge, Umbrella: Flood (flooded paddy test), 13 to 15 days; for Sedge, Umbrella plant response rating: Flood, 31 g ai/ha, scale 0 to 100 (0 no effect, 100 complete control)
In short: as §2

rice (Oryza sativa) = assay: Test B flooded paddy test; details: for Plant response rating, Flood, Rice: 250 g ai/ha, flooded paddy test, visual rating on 0 to 100 scale (0 no effect, 100 complete control) after 13 to 15 days; for Plant response rating, Rice: Flood (flooded paddy test), 13 to 15 days; for Rice plant response rating: Flood, 31 g ai/ha, scale 0 to 100 (0 no effect, 100 complete control)
In short: as §2

[10] = tested on: barnyardgrass (Echinochloa crus-galli); assay: Test B flooded paddy test; details: for Plant response rating, Flood, Barnyardgrass: 250 g ai/ha, flooded paddy test, visual rating on 0 to 100 scale (0 no effect, 100 complete control) after 13 to 15 days; for Plant response rating, Barnyardgrass: Flood (flooded paddy test), 13 to 15 days; for Barnyardgrass plant response rating: Flood, 31 g ai/ha, scale 0 to 100 (0 no effect, 100 complete control)
In short: as §2

[11] = Postemergence, 125 g ai/ha, visual injury, 0 to 100 scale (0 no effect, 100 complete control), approx. ten days
[12] = Postemergence, 500 g ai/ha, 0 to 100 scale, 0 = no effect, 100 = complete control, approx. ten days
[13] = Preemergence, 125 g ai/ha, 0 to 100 scale, 0 = no effect, 100 = complete control
[14] = Preemergence, 500 g ai/ha, visual injury, 0 to 100 scale (0 no effect, 100 complete control), approx. ten days
[15] = 62 g ai/ha, scale of 0 to 100 where 0 is no effect and 100 is complete control
[16] = 125 g ai/ha, scale 0 to 100, 0 is no effect, 100 is complete control
[17] = Postemergence, 125 g ai/ha, 0 to 100 scale where 0 is no effect and 100 is complete control
[18] = 62 g ai/ha, scale 0 to 100, 0 is no effect, 100 is complete control

SMILES: CCCCc1ncc(C(=O)C2=C(O)CCCC2=O)c(=O)n1-c1ccc(C)cc1 [Compound 67]
- Pigweed plant response rating [1, 11]: 100
- Plant response rating, Pigweed [1, 12]: 100
- Plant response rating, Pigweed [1, 13]: 90
- Plant response rating, Pigweed [1, 14]: 90
- Wheat plant response rating [2, 11]: 20
- Plant response rating, Wheat [2, 12]: 30
- Plant response rating, Wheat [2, 13]: 0
- Plant response rating, Wheat [2, 14]: 0
- Morningglory plant response rating [3, 11]: 100
- Plant response rating, Morningglory [3, 12]: 100
- Plant response rating, Morningglory [3, 13]: 30
- Plant response rating, Morningglory [3, 14]: 50
- Plant response rating, Corn (corn (Zea mays); [12]): 10
- Plant response rating, Corn (corn (Zea mays); [13]): 0
- Plant response rating, Corn (corn (Zea mays); [14]): 0
- Crabgrass, Large plant response rating [4, 11]: 60
- Plant response rating, Crabgrass, Large [4, 12]: 90
- Plant response rating, Crabgrass, Large [4, 13]: 30
- Plant response rating, Crabgrass, Large [4, 14]: 90
- Foxtail, Giant plant response rating [5, 11]: 30
- Plant response rating, Foxtail, Giant [5, 12]: 60
- Plant response rating, Foxtail, Giant [5, 14]: 50
- Velvetleaf plant response rating [6, 11]: 100
- Plant response rating, Velvetleaf [6, 12]: 100
- Plant response rating, Velvetleaf [6, 13]: 70
- Plant response rating, Velvetleaf [6, 14]: 80
- Barnyardgrass plant response rating [7, 11]: 70
- Plant response rating, Barnyardgrass [7, 12]: 90
- Plant response rating, Barnyardgrass [7, 13]: 0
- Plant response rating, Barnyardgrass [7, 14]: 40
- Plant response rating, Flood, Ducksalad [8]: 0
- Plant response rating, Ducksalad [8, 15]: 0
- Plant response rating, Ducksalad [8, 16]: 0
- Ducksalad plant response rating [8]: 0
- Plant response rating, Flood, Sedge, Umbrella [9]: 0
- Plant response rating, Sedge, Umbrella [9, 15]: 0
- Plant response rating, Sedge, Umbrella [9, 16]: 0
- Sedge, Umbrella plant response rating [9]: 0
- Plant response rating, Flood, Rice (rice (Oryza sativa)): 0
- Plant response rating, Rice (rice (Oryza sativa); [15]): 0
- Plant response rating, Rice (rice (Oryza sativa); [16]): 0
- Rice plant response rating (rice (Oryza sativa)): 0
- Plant response rating, Flood, Barnyardgrass [10]: 0
- Plant response rating, Barnyardgrass [10, 15]: 0
- Plant response rating, Barnyardgrass [10, 16]: 0
- Barnyardgrass plant response rating [10]: 0

SMILES: Cc1ccc(-c2ncc(C(=O)C3=C(O)CCCC3=O)c(=O)n2-c2ccccc2)cc1 [Compound 80]
- Plant response rating, Pigweed [1, 17]: 100
- Plant response rating, Pigweed [1, 12]: 100
- Plant response rating, Pigweed [1, 13]: 60
- Plant response rating, Pigweed [1, 14]: 90
- Plant response rating, Wheat [2, 17]: 0
- Plant response rating, Wheat [2, 12]: 0
- Plant response rating, Wheat [2, 13]: 0
- Plant response rating, Wheat [2, 14]: 0
- Plant response rating, Morningglory [3, 17]: 100
- Plant response rating, Morningglory [3, 12]: 100
- Plant response rating, Morningglory [3, 13]: 0
- Plant response rating, Morningglory [3, 14]: 30
- Plant response rating, Corn (corn (Zea mays); [17]): 0
- Plant response rating, Corn (corn (Zea mays); [12]): 50
- Plant response rating, Corn (corn (Zea mays); [13]): 0
- Plant response rating, Corn (corn (Zea mays); [14]): 0
- Plant response rating, Crabgrass, Large [4, 17]: 70
- Plant response rating, Crabgrass, Large [4, 12]: 90
- Plant response rating, Crabgrass, Large [4, 13]: 50
- Plant response rating, Crabgrass, Large [4, 14]: 90
- Plant response rating, Foxtail, Giant [5, 17]: 70
- Plant response rating, Foxtail, Giant [5, 12]: 90
- Plant response rating, Foxtail, Giant [5, 13]: 10
- Plant response rating, Foxtail, Giant [5, 14]: 60
- Plant response rating, Velvetleaf [6, 17]: 100
- Plant response rating, Velvetleaf [6, 12]: 100
- Plant response rating, Velvetleaf [6, 13]: 50
- Plant response rating, Velvetleaf [6, 14]: 100
- Plant response rating, Barnyardgrass [7, 17]: 30
- Plant response rating, Barnyardgrass [7, 12]: 80
- Plant response rating, Barnyardgrass [7, 13]: 0
- Plant response rating, Barnyardgrass [7, 14]: 10
- Plant response rating, Flood, Ducksalad [8]: 30
- Plant response rating, Ducksalad [8, 15]: 20
- Plant response rating, Ducksalad [8, 16]: 30
- Ducksalad plant response rating [8]: 0
- Plant response rating, Flood, Sedge, Umbrella [9]: 40
- Plant response rating, Sedge, Umbrella [9, 15]: 20
- Plant response rating, Sedge, Umbrella [9, 16]: 30
- Sedge, Umbrella plant response rating [9]: 0
- Plant response rating, Flood, Rice (rice (Oryza sativa)): 15
- Plant response rating, Rice (rice (Oryza sativa); [15]): 0
- Plant response rating, Rice (rice (Oryza sativa); [16]): 0
- Rice plant response rating (rice (Oryza sativa)): 0
- Plant response rating, Flood, Barnyardgrass [10]: 30
- Plant response rating, Barnyardgrass [10, 15]: 20
- Plant response rating, Barnyardgrass [10, 16]: 25
- Barnyardgrass plant response rating [10]: 15

SMILES: CCCCc1ncc(C(=O)C2=C(O)CCCC2=O)c(=O)n1-c1ccccc1 [Compound 42]
- Pigweed plant response rating [1, 11]: 100
- Plant response rating, Pigweed [1, 12]: 100
- Plant response rating, Pigweed [1, 13]: 90
- Plant response rating, Pigweed [1, 14]: 100
- Wheat plant response rating [2, 11]: 0
- Plant response rating, Wheat [2, 12]: 0
- Plant response rating, Wheat [2, 13]: 0
- Plant response rating, Wheat [2, 14]: 0
- Morningglory plant response rating [3, 11]: 80
- Plant response rating, Morningglory [3, 12]: 80
- Plant response rating, Morningglory [3, 13]: 0
- Plant response rating, Morningglory [3, 14]: 50
- Corn plant response rating (corn (Zea mays); [11]): 0
- Plant response rating, Corn (corn (Zea mays); [12]): 30
- Plant response rating, Corn (corn (Zea mays); [13]): 0
- Plant response rating, Corn (corn (Zea mays); [14]): 0
- Crabgrass, Large plant response rating [4, 11]: 60
- Plant response rating, Crabgrass, Large [4, 12]: 80
- Plant response rating, Crabgrass, Large [4, 13]: 40
- Plant response rating, Crabgrass, Large [4, 14]: 90
- Foxtail, Giant plant response rating [5, 11]: 40
- Plant response rating, Foxtail, Giant [5, 12]: 70
- Plant response rating, Foxtail, Giant [5, 13]: 10
- Plant response rating, Foxtail, Giant [5, 14]: 40
- Velvetleaf plant response rating [6, 11]: 100
- Plant response rating, Velvetleaf [6, 12]: 100
- Plant response rating, Velvetleaf [6, 13]: 70
- Plant response rating, Velvetleaf [6, 14]: 100
- Barnyardgrass plant response rating [7, 11]: 60
- Plant response rating, Barnyardgrass [7, 12]: 90
- Plant response rating, Barnyardgrass [7, 13]: 0
- Plant response rating, Barnyardgrass [7, 14]: 60
- Plant response rating, Flood, Ducksalad [8]: 50
- Plant response rating, Ducksalad [8, 18]: 30
- Plant response rating, Flood, Sedge, Umbrella [9]: 30
- Plant response rating, Sedge, Umbrella [9, 18]: 30
- Plant response rating, Flood, Rice (rice (Oryza sativa)): 20
- Plant response rating, Rice (rice (Oryza sativa); [18]): 0
- Plant response rating, Flood, Barnyardgrass [10]: 0
- Plant response rating, Barnyardgrass [10, 18]: 0
